Experimental data from the kinase profiling compilation of Christmann-Franck et al. (2016).

How the values were obtained:
Assay in all cases: KINOMEscan competition binding
Details in all cases: compound 10.0 µM
CAMK4 (human) = CAMK4 (human) (UniProt Q16566)
NEK6 (human) = NEK6 (human) (UniProt Q9HC98)
CIT (human) = CIT (human) (UniProt O14578)
PRKACB (human) = PRKACB (human) (UniProt P22694)
NEK2 (human) = NEK2 (human) (UniProt P51955)
EPHB1 (human) = EPHB1 (human) (UniProt P54762)
CDK3 (human) = CDK3 (human) (UniProt Q00526)
PIM1 (human) = PIM1 (human) (UniProt P11309)
MAPKAPK2 (human) = MAPKAPK2 (human) (UniProt P49137)
TNNI3K (human) = TNNI3K (human) (UniProt Q59H18)
CDKL2 (human) = CDKL2 (human) (UniProt Q92772)
TSSK1B (human) = TSSK1B (human) (UniProt Q9BXA7)
ADCK3 (human) = ADCK3 (human) (UniProt Q8NI60)
TNIK (human) = TNIK (human) (UniProt Q9UKE5)
RPS6KA3 KD1 (human) = RPS6KA3 KD1 (human) (UniProt P51812)
CAMK2B (human) = CAMK2B (human) (UniProt Q13554)
NEK1 (human) = NEK1 (human) (UniProt Q96PY6)
RIPK4 (human) = RIPK4 (human) (UniProt P57078)
FES (human) = FES (human) (UniProt P07332)
RPS6KA6 KD2 (human) = RPS6KA6 KD2 (human) (UniProt Q9UK32)
CSNK1E (human) = CSNK1E (human) (UniProt P49674)
CLK3 (human) = CLK3 (human) (UniProt P49761)
LATS2 (human) = LATS2 (human) (UniProt Q9NRM7)
CDC42BPG (human) = CDC42BPG (human) (UniProt Q6DT37)
FLT4 (human) = FLT4 (human) (UniProt P35916)
CHEK1 (human) = CHEK1 (human) (UniProt O14757)
STK25 (human) = STK25 (human) (UniProt O00506)
BMPR1A (human) = BMPR1A (human) (UniProt P36894)
ULK3 (human) = ULK3 (human) (UniProt Q6PHR2)
ULK2 (human) = ULK2 (human) (UniProt Q8IYT8)
MAP4K2 (human) = MAP4K2 (human) (UniProt Q12851)
CDK5 (human) = CDK5 (human) (UniProt Q00535)
FGFR4 (human) = FGFR4 (human) (UniProt P22455)
SIK1 (human) = SIK1 (human) (UniProt P57059)
TAOK1 (human) = TAOK1 (human) (UniProt Q7L7X3)
STK10 (human) = STK10 (human) (UniProt O94804)
RIPK2 (human) = RIPK2 (human) (UniProt O43353)
GAK (human) = GAK (human) (UniProt O14976)
CLK2 (human) = CLK2 (human) (UniProt P49760)
CDC2L2 (human) = CDC2L2 (human) (UniProt Q9UQ88)

Sequence of STK10 (human) (O94804 whole entry, looked up): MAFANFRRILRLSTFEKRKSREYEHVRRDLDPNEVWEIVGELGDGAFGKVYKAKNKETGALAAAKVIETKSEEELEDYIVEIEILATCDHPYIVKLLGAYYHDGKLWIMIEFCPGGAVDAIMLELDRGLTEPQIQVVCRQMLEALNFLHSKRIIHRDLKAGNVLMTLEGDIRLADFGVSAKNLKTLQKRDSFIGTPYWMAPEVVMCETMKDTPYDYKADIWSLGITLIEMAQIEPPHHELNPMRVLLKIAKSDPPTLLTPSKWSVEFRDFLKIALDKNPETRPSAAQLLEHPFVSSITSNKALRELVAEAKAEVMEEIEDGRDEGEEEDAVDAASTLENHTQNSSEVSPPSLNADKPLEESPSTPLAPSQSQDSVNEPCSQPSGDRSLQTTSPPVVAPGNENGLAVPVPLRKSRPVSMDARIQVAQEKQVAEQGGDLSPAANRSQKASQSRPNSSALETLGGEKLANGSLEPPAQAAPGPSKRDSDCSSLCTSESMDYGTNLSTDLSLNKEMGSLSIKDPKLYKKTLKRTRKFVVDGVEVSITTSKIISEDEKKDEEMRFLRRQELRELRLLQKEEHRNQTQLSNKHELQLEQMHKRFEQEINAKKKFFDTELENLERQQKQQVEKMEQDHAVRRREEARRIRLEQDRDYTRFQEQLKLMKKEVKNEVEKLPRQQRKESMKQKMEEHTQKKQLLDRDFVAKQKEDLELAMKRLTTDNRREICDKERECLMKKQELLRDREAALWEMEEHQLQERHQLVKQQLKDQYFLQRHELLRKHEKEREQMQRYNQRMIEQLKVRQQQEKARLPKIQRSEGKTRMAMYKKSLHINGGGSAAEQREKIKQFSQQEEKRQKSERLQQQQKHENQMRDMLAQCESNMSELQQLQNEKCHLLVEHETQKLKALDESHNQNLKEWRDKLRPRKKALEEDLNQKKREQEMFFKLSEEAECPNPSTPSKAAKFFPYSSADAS
Sequence of ULK3 (human) (Q6PHR2 whole entry, looked up): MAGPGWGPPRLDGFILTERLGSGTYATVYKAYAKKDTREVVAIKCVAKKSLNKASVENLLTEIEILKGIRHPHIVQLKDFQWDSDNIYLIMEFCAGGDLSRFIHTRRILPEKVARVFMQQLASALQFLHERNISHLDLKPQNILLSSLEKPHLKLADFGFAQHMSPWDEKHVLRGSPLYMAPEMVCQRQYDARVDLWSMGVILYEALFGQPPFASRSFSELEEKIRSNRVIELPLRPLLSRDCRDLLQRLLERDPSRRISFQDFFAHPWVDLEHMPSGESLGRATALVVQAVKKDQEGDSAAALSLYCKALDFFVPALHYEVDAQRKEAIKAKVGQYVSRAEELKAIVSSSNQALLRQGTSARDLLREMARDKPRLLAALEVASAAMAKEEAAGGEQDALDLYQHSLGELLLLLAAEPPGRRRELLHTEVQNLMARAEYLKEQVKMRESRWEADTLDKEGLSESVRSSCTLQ
Sequence of TSSK1B (human) (Q9BXA7 whole entry, looked up): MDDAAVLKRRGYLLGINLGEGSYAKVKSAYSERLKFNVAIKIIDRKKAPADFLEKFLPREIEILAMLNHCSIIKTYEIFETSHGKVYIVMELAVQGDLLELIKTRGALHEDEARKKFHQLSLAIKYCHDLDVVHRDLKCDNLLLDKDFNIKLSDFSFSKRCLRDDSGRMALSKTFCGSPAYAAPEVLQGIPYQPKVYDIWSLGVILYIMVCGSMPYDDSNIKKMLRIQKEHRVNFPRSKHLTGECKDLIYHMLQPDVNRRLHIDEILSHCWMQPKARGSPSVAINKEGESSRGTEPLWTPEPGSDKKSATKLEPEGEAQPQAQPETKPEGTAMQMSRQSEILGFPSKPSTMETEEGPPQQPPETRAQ
Sequence of FES (human) (P07332 whole entry, looked up): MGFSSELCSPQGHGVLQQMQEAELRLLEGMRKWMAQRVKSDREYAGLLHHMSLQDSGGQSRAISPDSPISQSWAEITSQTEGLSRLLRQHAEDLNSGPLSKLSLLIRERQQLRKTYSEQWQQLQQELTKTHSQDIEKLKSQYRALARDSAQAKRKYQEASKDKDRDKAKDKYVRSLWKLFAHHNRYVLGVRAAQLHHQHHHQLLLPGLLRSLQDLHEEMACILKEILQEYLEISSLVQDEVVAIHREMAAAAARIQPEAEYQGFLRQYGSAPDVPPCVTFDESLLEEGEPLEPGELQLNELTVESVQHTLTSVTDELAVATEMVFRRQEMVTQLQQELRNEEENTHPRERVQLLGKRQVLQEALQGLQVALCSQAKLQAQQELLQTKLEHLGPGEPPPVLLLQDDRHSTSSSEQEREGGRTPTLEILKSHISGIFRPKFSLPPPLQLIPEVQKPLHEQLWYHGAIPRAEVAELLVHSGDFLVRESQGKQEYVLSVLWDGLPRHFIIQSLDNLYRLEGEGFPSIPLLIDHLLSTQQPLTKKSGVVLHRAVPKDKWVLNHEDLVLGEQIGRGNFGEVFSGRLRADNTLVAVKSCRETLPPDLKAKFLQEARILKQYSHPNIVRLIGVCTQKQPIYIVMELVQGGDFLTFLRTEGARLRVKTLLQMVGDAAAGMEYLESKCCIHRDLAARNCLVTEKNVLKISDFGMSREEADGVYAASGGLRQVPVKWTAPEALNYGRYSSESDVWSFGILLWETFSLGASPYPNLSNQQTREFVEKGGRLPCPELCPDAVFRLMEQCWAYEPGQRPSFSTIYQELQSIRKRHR
Sequence of RPS6KA6 KD2 (human) (Q9UK32 whole entry, looked up): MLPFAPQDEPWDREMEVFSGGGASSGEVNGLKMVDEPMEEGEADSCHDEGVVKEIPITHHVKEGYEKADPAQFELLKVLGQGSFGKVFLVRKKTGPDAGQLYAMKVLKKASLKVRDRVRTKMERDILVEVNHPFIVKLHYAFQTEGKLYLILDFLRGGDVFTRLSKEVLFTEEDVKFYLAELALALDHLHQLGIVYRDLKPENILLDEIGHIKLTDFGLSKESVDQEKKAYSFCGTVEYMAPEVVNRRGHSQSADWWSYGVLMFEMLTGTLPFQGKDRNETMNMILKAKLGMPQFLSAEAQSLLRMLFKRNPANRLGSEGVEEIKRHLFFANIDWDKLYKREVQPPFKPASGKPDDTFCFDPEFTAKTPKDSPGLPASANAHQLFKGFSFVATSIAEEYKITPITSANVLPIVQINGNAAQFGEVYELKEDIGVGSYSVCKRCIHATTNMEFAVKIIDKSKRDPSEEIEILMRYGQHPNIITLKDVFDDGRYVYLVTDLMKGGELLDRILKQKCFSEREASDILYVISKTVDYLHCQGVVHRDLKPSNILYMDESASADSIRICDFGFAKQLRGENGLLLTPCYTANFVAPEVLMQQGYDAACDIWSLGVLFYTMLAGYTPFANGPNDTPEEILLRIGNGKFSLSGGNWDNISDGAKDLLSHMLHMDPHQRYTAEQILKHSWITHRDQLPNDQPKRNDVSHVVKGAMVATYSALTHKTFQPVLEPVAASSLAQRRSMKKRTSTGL
Sequence of CLK3 (human) (P49761 whole entry, looked up): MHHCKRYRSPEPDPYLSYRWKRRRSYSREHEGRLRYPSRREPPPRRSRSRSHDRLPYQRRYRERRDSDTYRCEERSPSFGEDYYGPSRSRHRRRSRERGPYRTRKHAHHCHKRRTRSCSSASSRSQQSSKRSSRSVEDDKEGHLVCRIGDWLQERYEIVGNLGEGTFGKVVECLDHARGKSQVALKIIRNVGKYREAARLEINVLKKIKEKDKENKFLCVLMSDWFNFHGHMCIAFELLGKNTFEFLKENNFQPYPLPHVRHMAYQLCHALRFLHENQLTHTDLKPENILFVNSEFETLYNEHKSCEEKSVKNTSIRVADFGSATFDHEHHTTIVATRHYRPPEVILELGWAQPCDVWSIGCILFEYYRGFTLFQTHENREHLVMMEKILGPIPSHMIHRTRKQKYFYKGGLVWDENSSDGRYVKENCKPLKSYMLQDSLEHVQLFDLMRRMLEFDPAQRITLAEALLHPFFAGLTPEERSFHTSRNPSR
Sequence of TAOK1 (human) (Q7L7X3 whole entry, looked up): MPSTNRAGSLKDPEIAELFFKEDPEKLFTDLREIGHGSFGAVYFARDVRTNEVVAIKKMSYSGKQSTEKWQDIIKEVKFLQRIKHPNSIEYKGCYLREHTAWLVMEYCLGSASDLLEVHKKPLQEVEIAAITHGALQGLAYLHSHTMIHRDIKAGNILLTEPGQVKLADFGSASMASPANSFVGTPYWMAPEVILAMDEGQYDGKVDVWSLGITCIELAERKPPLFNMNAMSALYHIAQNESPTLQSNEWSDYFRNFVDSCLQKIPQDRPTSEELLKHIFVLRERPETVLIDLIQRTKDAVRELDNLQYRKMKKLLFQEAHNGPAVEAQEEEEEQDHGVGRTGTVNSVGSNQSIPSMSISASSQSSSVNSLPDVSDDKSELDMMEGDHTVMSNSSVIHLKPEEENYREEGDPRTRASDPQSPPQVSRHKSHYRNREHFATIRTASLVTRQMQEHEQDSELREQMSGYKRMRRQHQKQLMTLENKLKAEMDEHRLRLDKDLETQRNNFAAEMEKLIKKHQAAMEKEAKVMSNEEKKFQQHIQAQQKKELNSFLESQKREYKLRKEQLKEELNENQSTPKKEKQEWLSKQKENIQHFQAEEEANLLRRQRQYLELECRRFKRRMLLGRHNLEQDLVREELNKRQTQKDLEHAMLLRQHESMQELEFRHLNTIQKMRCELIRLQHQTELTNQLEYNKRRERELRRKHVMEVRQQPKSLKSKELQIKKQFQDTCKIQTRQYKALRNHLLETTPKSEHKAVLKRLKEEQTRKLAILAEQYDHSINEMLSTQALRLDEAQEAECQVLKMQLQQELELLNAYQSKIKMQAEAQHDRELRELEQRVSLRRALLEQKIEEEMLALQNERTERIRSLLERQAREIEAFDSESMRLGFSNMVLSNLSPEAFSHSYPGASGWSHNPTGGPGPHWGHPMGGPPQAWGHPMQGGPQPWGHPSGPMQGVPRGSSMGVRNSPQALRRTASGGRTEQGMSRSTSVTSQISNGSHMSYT

Structure (SMILES) | kinase still bound, per cent of control (CAMK4 (human)) | kinase still bound, per cent of control (NEK6 (human)) | kinase still bound, per cent of control (CIT (human)) | kinase still bound, per cent of control (PRKACB (human)) | kinase still bound, per cent of control (NEK2 (human)) | kinase still bound, per cent of control (EPHB1 (human)) | kinase still bound, per cent of control (CDK3 (human)) | kinase still bound, per cent of control (PIM1 (human)) | kinase still bound, per cent of control (MAPKAPK2 (human)) | kinase still bound, per cent of control (TNNI3K (human)) | kinase still bound, per cent of control (CDKL2 (human)) | kinase still bound, per cent of control (TSSK1B (human)) | kinase still bound, per cent of control (ADCK3 (human)) | kinase still bound, per cent of control (TNIK (human)) | kinase still bound, per cent of control (RPS6KA3 KD1 (human)) | kinase still bound, per cent of control (CAMK2B (human)) | kinase still bound, per cent of control (NEK1 (human)) | kinase still bound, per cent of control (RIPK4 (human)) | kinase still bound, per cent of control (FES (human)) | kinase still bound, per cent of control (RPS6KA6 KD2 (human)) | other results
N#Cc1c(NC(=O)c2cccc3ccccc23)sc2c1CCCC2 | 100% | 92% | 100% | 80% | 65% | 91% | 97% | 100% | 93% | 52% | 97% | 100% | 100% | 100% | 100% | 90% | 100% | 96% | 100% | 77% | kinase still bound, per cent of control (CSNK1E (human)): 70%; kinase still bound, per cent of control (CLK3 (human)): 72%; kinase still bound, per cent of control (LATS2 (human)): 75%; kinase still bound, per cent of control (CDC42BPG (human)): 81%; kinase still bound, per cent of control (FLT4 (human)): 91%; kinase still bound, per cent of control (CHEK1 (human)): 82%; kinase still bound, per cent of control (STK25 (human)): 93%; kinase still bound, per cent of control (BMPR1A (human)): 96%; kinase still bound, per cent of control (ULK3 (human)): 94%; kinase still bound, per cent of control (ULK2 (human)): 98%; kinase still bound, per cent of control (MAP4K2 (human)): 100%; kinase still bound, per cent of control (CDK5 (human)): 100%; kinase still bound, per cent of control (FGFR4 (human)): 49%; kinase still bound, per cent of control (SIK1 (human)): 92%; kinase still bound, per cent of control (TAOK1 (human)): 100%; kinase still bound, per cent of control (STK10 (human)): 67%; kinase still bound, per cent of control (RIPK2 (human)): 58%; kinase still bound, per cent of control (GAK (human)): 67%; kinase still bound, per cent of control (CLK2 (human)): 87%; kinase still bound, per cent of control (CDC2L2 (human)): 100%
C=CC(=O)Nc1cccc(Nc2nc(N[C@H]3CC[C@H](N(C)C)CC3)nc3c2ncn3C(C)C)c1 | 100% | 90% | 50% | 100% | 94% | 84% | 95% | 92% | 100% | 62% | 100% | 97% | 87% | 35% | 3.6% | 80% | 100% | 72% | 85% | 100% | kinase still bound, per cent of control (CSNK1E (human)): 0.1%; kinase still bound, per cent of control (CLK3 (human)): 9%; kinase still bound, per cent of control (LATS2 (human)): 70%; kinase still bound, per cent of control (CDC42BPG (human)): 84%; kinase still bound, per cent of control (FLT4 (human)): 58%; kinase still bound, per cent of control (CHEK1 (human)): 87%; kinase still bound, per cent of control (STK25 (human)): 89%; kinase still bound, per cent of control (BMPR1A (human)): 100%; kinase still bound, per cent of control (ULK3 (human)): 52%; kinase still bound, per cent of control (ULK2 (human)): 2%; kinase still bound, per cent of control (MAP4K2 (human)): 31%; kinase still bound, per cent of control (CDK5 (human)): 80%; kinase still bound, per cent of control (FGFR4 (human)): 98%; kinase still bound, per cent of control (SIK1 (human)): 85%; kinase still bound, per cent of control (TAOK1 (human)): 35%; kinase still bound, per cent of control (STK10 (human)): 72%; kinase still bound, per cent of control (RIPK2 (human)): 100%; kinase still bound, per cent of control (GAK (human)): 44%; kinase still bound, per cent of control (CLK2 (human)): 0.5%; kinase still bound, per cent of control (CDC2L2 (human)): 98%
COc1cc(C(=O)NC2CCN(C)CC2)ccc1Nc1ncc2c(n1)N(C1CCCC1)C(C)CC(=O)N2C (stereo not given) | 100% | 100% | 100% | 100% | 100% | 100% | 100% | 100% | 100% | 100% | 100% | 100% | 100% | 100% | 100% | 100% | 100% | 100% | 100% | 12% | kinase still bound, per cent of control (CSNK1E (human)): 100%; kinase still bound, per cent of control (CLK3 (human)): 100%; kinase still bound, per cent of control (LATS2 (human)): 100%; kinase still bound, per cent of control (CDC42BPG (human)): 100%; kinase still bound, per cent of control (FLT4 (human)): 100%; kinase still bound, per cent of control (CHEK1 (human)): 100%; kinase still bound, per cent of control (STK25 (human)): 100%; kinase still bound, per cent of control (BMPR1A (human)): 100%; kinase still bound, per cent of control (ULK3 (human)): 100%; kinase still bound, per cent of control (ULK2 (human)): 100%; kinase still bound, per cent of control (MAP4K2 (human)): 100%; kinase still bound, per cent of control (CDK5 (human)): 100%; kinase still bound, per cent of control (FGFR4 (human)): 100%; kinase still bound, per cent of control (SIK1 (human)): 100%; kinase still bound, per cent of control (TAOK1 (human)): 100%; kinase still bound, per cent of control (STK10 (human)): 29%; kinase still bound, per cent of control (RIPK2 (human)): 100%; kinase still bound, per cent of control (GAK (human)): 3.8%; kinase still bound, per cent of control (CLK2 (human)): 6.2%; kinase still bound, per cent of control (CDC2L2 (human)): 100%
